The text below walks through data of patent US7524487B2, “Compositions and methods for modulating interleukin-10” (University of Maryland, priority 2005, dated 2009).

The test has as its system IL-10 promoter. Nature of the test: ChIP of Sp1 and STAT3 binding to the IL-10 promoter in situ in stimulated BMMφ. The format is cell-based, mice. On the procedure: BMMφ were stimulated with medium (open bar), E-IgG (dotted bar), LPS (solid bar), or LPS+E-IgG (striped bar) for 40 min. Some cells were pretreated with PD98059 (10 μM). Immunoprecipitations were carried out using either Sp1 or STAT3 specific Abs. A. Conventional RT-PCR was carried out using primers which amplify the putative Sp1 or STAT3 binding sites of the IL-10 promoter respectively. B. Real time PCR analysis of samples obtained in A. Samples were normalized to input DNA controls.
FIG. 22 is a graph showing Inhibition of histone modifications by blocking ERK. BMMφ were pre-treated with PD98059 (15 μM) (solid bars) or drug vehicle (open bars) for 1 hour and then stimulated with IC plus LPS (10 ng/mL). Cross-linked chromatin fragments were immunoprecipitated with antibody to phosphorylated histone H3 at Ser 10 or antibody to Sp1. The DNA was purified and analyzed for the presence of IL-10 promoter sequences corresponding to nucleosome −2 by QRT-PCR. The data were plotted graphically as the percentage change relative to drug vehicle (IC/LPS) at 30 min post-stimulation for histone H3 phosphorylation, and at 45 min post-stimulation for Sp1 recruitment. One representative from two independent experiments is presented.
Chromatin immunoprecipitation (ChIP). ChIPs were carried out using the ChIP Assay kit following the manufacturer's protocol (Upstate USA, Inc., Lake Placid, N.Y.). […]

For `COc1cccc(-c2cc(=O)c3ccccc3o2)c1N` [PD98059], the “Sp1 recruitment to IL-10 promoter nucleosome −2 (ChIP, QRT-PCR)” value (BMMφ pre-treated with PD98059 15 μM for 1 hour, IC plus LPS 10 ng/mL, 45 min post-stimulation, relative to drug vehicle) was “dramatically reduced”. Where the note is “BMMφ pretreated with PD98059 10 μM, LPS + E-IgG for 40 min”, the “Sp1 and STAT3 transcription factor binding to the IL-10 promoter in situ (ChIP)” value was “reversed”.
